Source: EP2135864A1, “5-(4-methanesulfonyl-phenyl)-thiazole derivatives for the treatment of acute and chronic inflammatory diseases” (FAES FARMA, S.A., priority 2008, dated 2009)

Columns and labels:
Format in all cases: cell-based, human
TNF-alpha [1] = assay: TNF-alpha production by PBMC from healthy volunteers, Cytometric Bead Array (CBA); conditions: 24 hours, mean ± standard error, n=13
Method: (§1) CBA protocol was followed according to the manufacturer's instructions. The election of microparticles was performed following the summary of Figure 1.
(§2) The acquisition on samples was performed with the BD FACS Array Bioanalyser System (FACSArray, Becton Dickinson, San José, CA, USA) and the analysis of the results was completed with the software FCAP Array (Becton Dickinson) in a PC computer.
(§3) Briefly, the experimental protocol consisted of a plate pre-washing out with Wash Buffer. After decantation, the mixture of capture microparticles was re-suspended in the vortex. Standards and samples were added in the adequate dilution. After permanent stirring incubation during 1 h, the PE detection reagent was added and incubated again during 2h at room temperature. After a washing-out, the acquisition was performed in the flow cytometer. Table 3. -Kit CBA Human Soluble Protein Multiplex Flex Set System.
PBMC (5 x 10^4 cells/well) from 13 healthy volunteers were cultured in duplicate in 200 µl of complete medium supplemented with the highest solvent concentration (10^-6 M), […] the absence of LPS (10µg/ml) during 24 hours. Supernatant of cultures were frozen at -20°C and quantification was carried out by BD FACS Array Bioanayliser (BD Biosciences Cat No. 340128, San Diego CA 92121) by using specific reagents for the simultaneous assay of the indicated cytokines concentration (CBA Flex Multiplex Set (BD™ Cytometric Bead Array, CBA: IL-8, IL-10, TNF-alpha and IFN-gamma Becton Dickinson Biosciences Pharmingen, San Diego CA 92121).

IFN-gamma = IFN-gamma production by PBMC from patients with rheumatoid arthritis, CBA; conditions: 24 hours, mean ± standard error, n=8
Method: as §1, §2, §3
PBMC (5 x 10^4 cells/well) from 8 patients with rheumatoid arthritis were cultured in duplicate 200 µl of complete medium supplement with the highest solvent concentration (10^-6 M), and 10^-6 M, 10^-7 M and 10^-8 M of compound 12, in the presence and absence either of LPS (10 µg/ml), or anti-CD3 (12.5 ng/ml) + anti-CD28 (1/3x10^5), during 24 hours. Culture supernatants were frozen at -20°C and IFN-gamma concentration was assessed by BD FACS Array Bioanalyser by using CBA Flex Set, specific to determine IFN-gamma concentration, following the manufacturer instructions.

TNF-alpha [2] = assay: TNF-alpha production by PBMC of healthy volunteers, ELISA of culture supernatant; conditions: 24 hours, median ± standard error, n=10
Method: In order to quantify the serum cytokines concentration, the extracted blood was stored in tubes both with and without anti-coagulant (collected by antecubital venopunction and arterial catheter, respectively). Blood was allowed to coagulate at room temperature in the laboratory, further separating the serum by centrifugation (600xg during 20 minutes). Supernatant were collected, filtered, divided in aliquotes and stored at -70°C. Concentration assays for different cytokines were performed by using the commercial kits described in Table 2. Table 2.- Commercial ELISA kits used in this study
Supernatants were unfrozen up to the room temperature and faced against the respective anti-cytokine by fixing them in the plate bottom and incubating them during a variable time. Subsequently, wash-outs were carried out and the substances recommended by the corresponding company were added in order to allow a colorimetric reaction, in a proportional manner to the amount of cytokine present in the supernatant. The results were assessed with the enzymo-immunoanalysis reader Multititer Plus (Tiertek Multiscan Plus, Flow Laboratories).
The analysis of the standard curves and subsequent interpolation was performed with the software Delta Soft II version 4.1 (Biometallics, Inc.) in an Apple Macintosh computer. Cytokine concentrations were converted to molar in order to calculate the molecular ratios of each case and the number of soluble molecules.
Effects of compound 12 on TNF-alpha production by PBMC of healthy volunteers in the presence or in the absence of LPS were first investigated. PBMC (5 x 10^4 cells/well, 200 µl) from 10 healthy volunteers were cultured in parallel in duplicate in tissue culture plates, 96 well, flat-bottom with low evaporation lid (353072 Falcon, Becton Dickinson labware, Franklin Lakes, USA, 07417-1886 NJ) in complete medium (RPMI-1640 with glutamine Cat BE-12-70F, Cambrex Biosciences, B4880 Verviers, Belgium), supplemented with phoetal bovine serum (origin USA, Gibco ref. 26140-079) and a solvent concentration of 10^-6 M alone or supplemented with 10^-6 M or 10^-7 M of compound 12, in the presence and in the absence of LPS (10microg/ml; E. coli LPS 0111:B4 strain InvivoGene, San Diego CA92121 USA) during 24 hours. Supernatant of cultures were frozen at -20°C and the concentration of TNF-alpha was quantified with ELISA species-specific (enzyme-linked immunosorbent assay for quantitative detection of tumour necrosis factor- alpha: human TNF-alpha ELISA BM S223/4TEUCE, Bender Med System Inc, Burlinghane CA 94010).

IL-8 = IL-8 production by PBMC from patients with rheumatoid arthritis, CBA; conditions: 24 hours, mean ± standard error, n=8
Method: as §1, §2, §3
The effect on IL-8 production by PBMC from patients with rheumatoid arthritis was also studied. PBMC (5 x 10^4 cells per well) from 8 patients with rheumatoid arthritis were cultured in duplicate in 200 µl of complete medium supplemented with the highest solvent concentration (10^-6 M), and 10^-6 M, 10^-7 M and 10^-8 M of compound 12, in the presence and in the absence of either LPS (10 µg/ml) or anti-CD3 (12.5 ng/ml) + anti-CD28 (1/3x10^5), during 24 hours. Culture supernatants were frozen at -20°C and IL-8 concentration was quantified by BD FACS Array Bioanalyser by using CBA Flex Set, specific to determine IL-8 concentration, following the manufacturer instructions.

Cc1nc(OC2CCCC2)c(-c2ccc(S(C)(=O)=O)cc2)s1 [compound 12, 4-cyclopentyloxy-5-(4-methylsulfonyl-phenyl)-2-methylthiazole]
TNF-alpha production in PMBC from healthy volunteers (TNF-alpha [1]; LPS (10µg/ml), 10^-6 M, vehicle 923.93±160.00, p 0.002): 602.12±100.00 (0.002) pg/mL
TNF-alpha production in PMBC from healthy volunteers (TNF-alpha [1]; LPS (10µg/ml), 10^-7 M, vehicle 923.93±160.00, p 0.046): 746.84±125.00 (0.046) pg/mL
TNF-alpha production in PMBC from healthy volunteers (TNF-alpha [1]; LPS (10µg/ml), 10^-8 M, vehicle 923.93±160.00, p 0.055): 738.81±100.00 (0.055) pg/mL
TNF-alpha production in PMBC from healthy volunteers (TNF-alpha [1]; anti-CD3 (12.5 ng/ml) + anti-CD28 (1/3x10^5), 10^-6 M, vehicle 435.81±60.00, p 0.116): 334.21±63.00 (0.116) pg/mL
TNF-alpha production in PMBC from healthy volunteers (TNF-alpha [1]; anti-CD3 (12.5 ng/ml) + anti-CD28 (1/3x10^5), 10^-7 M, vehicle 435.81±60.00, p 0.753): 404.11±97.00 (0.753) pg/mL
TNF-alpha production in PMBC from healthy volunteers (TNF-alpha [1]; anti-CD3 (12.5 ng/ml) + anti-CD28 (1/3x10^5), 10^-8 M, vehicle 435.81±60.00, p 0.422): 355.62±65.00 (0.422) pg/mL
TNF-alpha production in PMBC from healthy volunteers (TNF-alpha [1]; medium, 10^-6 M, vehicle 163.84±30.00, p 0.422): 148.31±50.00 (0.422) pg/mL
TNF-alpha production in PMBC from healthy volunteers (TNF-alpha [1]; medium, 10^-7 M, vehicle 163.84±30.00, p 0.249): 197.81±40.00 (0.249) pg/mL
TNF-alpha production in PMBC from healthy volunteers (TNF-alpha [1]; medium, 10^-8 M, vehicle 163.84±30.00, p 0.65): 168.49±16.00 (0.65) pg/mL
IFN-gamma production in PMBC from patients with rheumatoid arthritis (IFN-gamma; LPS (10µg/ml), 10^-6 M, vehicle 461.14±85.00, p 0.484): 205.26±46.00 (0.484) pg/mL
IFN-gamma production in PMBC from patients with rheumatoid arthritis (IFN-gamma; LPS (10µg/ml), 10^-7 M, vehicle 461.14±85.00, p 0.208): 146.50±33.00 (0.208) pg/mL
IFN-gamma production in PMBC from patients with rheumatoid arthritis (IFN-gamma; LPS (10µg/ml), 10^-8 M, vehicle 461.14±85.00, p 0.889): 248.73±35.00 (0.889) pg/mL
IFN-gamma production in PMBC from patients with rheumatoid arthritis (IFN-gamma; anti-CD3 (12.5 ng/ml) + anti-CD28 (1/3x10^5), 10^-6 M, vehicle 8406.18±1000.00, p 0.05): 5115.27±600.00 (0.05) pg/mL
IFN-gamma production in PMBC from patients with rheumatoid arthritis (IFN-gamma; anti-CD3 (12.5 ng/ml) + anti-CD28 (1/3x10^5), 10^-7 M, vehicle 8406.18±1000.00, p 0.05): 6411.71±700.00 (0.05) pg/mL
IFN-gamma production in PMBC from patients with rheumatoid arthritis (IFN-gamma; anti-CD3 (12.5 ng/ml) + anti-CD28 (1/3x10^5), 10^-8 M, vehicle 8406.18±1000.00, p 0.017): 7122.07±950 (0.017) pg/mL
IFN-gamma production in PMBC from patients with rheumatoid arthritis (IFN-gamma; medium, 10^-6 M, vehicle 145.49±28.00, p 0.779): 193.68±45.00 (0.779) pg/mL
IFN-gamma production in PMBC from patients with rheumatoid arthritis (IFN-gamma; medium, 10^-7 M, vehicle 145.49±28.00, p 0.208): 203.72±50.00 (0.208) pg/mL
IFN-gamma production in PMBC from patients with rheumatoid arthritis (IFN-gamma; medium, 10^-8 M, vehicle 145.49±28.00, p 0.674): 235.10±60.00 (0.674) pg/mL
TNF-alpha production in PMBC from healthy volunteers (TNF-alpha [2]; LPS (10µg/ml), 10^-6 M, vehicle 3084.63±450.00, p 0.005): 1064.91±52.82 (0.005) pg/mL
TNF-alpha production in PMBC from healthy volunteers (TNF-alpha [2]; LPS (10µg/ml), 10^-7 M, vehicle 3084.63±450.00, p 0.028): 1938.00±487.74 (0.028) pg/mL
TNF-alpha production in PMBC from healthy volunteers (TNF-alpha [2]; medium (no stimulus), 10^-6 M, vehicle 1118.00±800.00, p 0.009): 551.60±324.17 (0.009) pg/mL
TNF-alpha production in PMBC from healthy volunteers (TNF-alpha [2]; medium (no stimulus), 10^-7 M, vehicle 1118.00±800.00, p 0.114): 1121.00±100.48 (0.114) pg/mL
IL-8 production in PMBC from patients with rheumatoid arthritis (IL-8; LPS (10µg/ml), 10^-6 M, vehicle 150759.65±22966.06, p 0.012): 185536.78±22000.00 (0.012) pg/mL
IL-8 production in PMBC from patients with rheumatoid arthritis (IL-8; LPS (10µg/ml), 10^-7 M, vehicle 150759.65±22966.06, p 0.208): 174156.23±13385.66 (0.208) pg/mL
IL-8 production in PMBC from patients with rheumatoid arthritis (IL-8; LPS (10µg/ml), 10^-8 M, vehicle 150759.65±22966.06, p 0.012): 184541.37±21500.00 (0.012) pg/mL
IL-8 production in PMBC from patients with rheumatoid arthritis (IL-8; anti-CD3 (12.5 ng/ml) + anti-CD28 (1/3x10^5), 10^-6 M, vehicle 118017.97±21116.00, p 0.263): 124576.09±14605.02 (0.263) pg/mL
IL-8 production in PMBC from patients with rheumatoid arthritis (IL-8; anti-CD3 (12.5 ng/ml) + anti-CD28 (1/3x10^5), 10^-7 M, vehicle 118017.97±21116.00, p 0.889): 109607.00±18310.15 (0.889) pg/mL
IL-8 production in PMBC from patients with rheumatoid arthritis (IL-8; anti-CD3 (12.5 ng/ml) + anti-CD28 (1/3x10^5), 10^-8 M, vehicle 118017.97±21116.00, p 0.575): 121587.88±16117.25 (0.575) pg/mL
IL-8 production in PMBC from patients with rheumatoid arthritis (IL-8; medium, 10^-6 M, vehicle 57877.64±11143.52, p 0.208): 98012.08±8395.97 (0.208) pg/mL
IL-8 production in PMBC from patients with rheumatoid arthritis (IL-8; medium, 10^-7 M, vehicle 57877.64±11143.52, p 0.161): 96498.50±10784.62 (0.161) pg/mL
IL-8 production in PMBC from patients with rheumatoid arthritis (IL-8; medium, 10^-8 M, vehicle 57877.64±11143.52, p 0.123): 93977.67±9247.38 (0.123) pg/mL
